The source of these data is PubChem BioAssay (NCI).

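In this assay, cells in 96-well plates receive the compound at five concentrations for 48 hours. Endpoints are linearly interpolated between the surrounding concentrations. GI50 = concentration required for 50% inhibition of growth. TGI is the concentration that stops growth completely.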

Among the test systems are OVCAR-3 ovarian; HOP-92 NSCLC; HS 578T breast; NCI/ADR-RES ovarian; HCC-2998 colon; MALME-3M melanoma; MDA-MB-435; OVCAR-4 ovarian; OVCAR-8 ovarian; 786-0 renal.
What all share (test): NCI-60 cell line screen, 48 h

As for `COC(=O)C1CCc2sc3ncnc(Nc4cn[nH]c4C(=O)Nc4ccc(CN5CCN(C)CC5)cc4)c3c21` (stereo not drawn), the GI50 in the assay on OVCAR-3 ovarian was 0.334 µM; with HOP-92 NSCLC, 1.14 µM; in the assay on HS 578T breast it was 0.54 µM; in the assay on NCI/ADR-RES ovarian it was 3.27 µM; in the assay on HCC-2998 colon, 1.82 µM; in the assay on MALME-3M melanoma, 1.98 µM. Further, the GI50 was 1.06 µM in the assay with MDA-MB-435, 0.906 µM in the assay with OVCAR-4 ovarian and 0.711 µM in the assay with OVCAR-8 ovarian. Besides, the TGI with OVCAR-3 ovarian is 2.04 µM; in the assay on HOP-92 NSCLC, 5.88 µM; with HS 578T breast, 12.7 µM; in the assay on NCI/ADR-RES ovarian, above 100 µM; in the assay on HCC-2998 colon, 31.5 µM; with MALME-3M melanoma, 3.78 µM. Further, the values for the TGI in the assay on MDA-MB-435, in the assay with OVCAR-4 ovarian and in the assay on OVCAR-8 ovarian were 3.38 µM, above 100 µM and 75.1 µM, respectively.

Take `COc1cccc2c1C(=O)c1c(O)c3c(c(O)c1C2=O)C[C@H](O)C[C@@H]3OC1CC(N)C(O)C(C)O1` (stereo partly drawn): the TGI in the assay with OVCAR-3 ovarian was found to be 7.34 µM; in the assay on HOP-92 NSCLC, 17.6 µM; in the assay on HS 578T breast, 5.97 µM; in the assay with NCI/ADR-RES ovarian it was 62.3 µM; in the assay with MALME-3M melanoma, 3.57 µM; in the assay with MDA-MB-435, 8.05 µM. Further, the TGI is 21.4 µM with OVCAR-4 ovarian, 3.64 µM in the assay with OVCAR-8 ovarian and 14.2 µM in the assay on 786-0 renal.

Regarding `CC[C@H](Nc1nc(C)nc(N)c1C#N)c1nc2cccc(NCc3ccc(C(=O)NO)cc3)c2c(=O)n1-c1ccccc1`, the GI50 in the assay with OVCAR-3 ovarian is 1.48 µM; in the assay on HOP-92 NSCLC, 1.38 µM; in the assay with HS 578T breast, 2.45 µM; in the assay on NCI/ADR-RES ovarian, 1.99 µM; in the assay on HCC-2998 colon it was 1.67 µM; in the assay with MALME-3M melanoma, 1.48 µM. Also, the results for the GI50 in the assay on MDA-MB-435, in the assay with OVCAR-4 ovarian and with OVCAR-8 ovarian were 1.93 µM, 2.74 µM and 1.55 µM, respectively. Also, the TGI in the assay on OVCAR-3 ovarian turned out to be 2.96 µM; with HOP-92 NSCLC, 3.07 µM; with HS 578T breast it was 8.36 µM; in the assay with NCI/ADR-RES ovarian, 4.69 µM; in the assay on HCC-2998 colon, 3.28 µM; in the assay with MALME-3M melanoma, 4.05 µM. The TGI in the assay on MDA-MB-435 was 3.74 µM; in the assay with OVCAR-4 ovarian, 14.6 µM; with OVCAR-8 ovarian, 3.71 µM.

`COC(=O)Cc1ccc2c(cnn2-c2ccccc2)c1OC`: the TGI with OVCAR-3 ovarian, in the assay with HS 578T breast, in the assay with NCI/ADR-RES ovarian, with HCC-2998 colon, in the assay on MALME-3M melanoma and with MDA-MB-435 was above 10 µM in each case. Besides, the TGI in the assay on OVCAR-4 ovarian, in the assay with OVCAR-8 ovarian and in the assay on 786-0 renal was above 10 µM throughout.

Regarding `O=C1NC2CCCCC2N=C1CC(=O)c1ccc(Br)cc1` (stereo not drawn), the TGI is above 100 µM with OVCAR-3 ovarian; 65.8 µM with HOP-92 NSCLC; 42.1 µM in the assay with HS 578T breast; above 100 µM in the assay on NCI/ADR-RES ovarian; above 100 µM in the assay on HCC-2998 colon; above 100 µM with MALME-3M melanoma. Also, the TGI is above 100 µM in the assay with MDA-MB-435, 19.8 µM with OVCAR-8 ovarian and above 100 µM in the assay with 786-0 renal.

`Cc1c(CN2CCN(C)CC2)c(CN2CCN(C)CC2)c(C)n1-c1ccc(Cl)cc1`: the TGI was above 100 µM with OVCAR-3 ovarian; 70.6 µM with HS 578T breast; above 100 µM in the assay with NCI/ADR-RES ovarian; above 100 µM in the assay on HCC-2998 colon; 37.5 µM with MALME-3M melanoma; 62.7 µM in the assay with MDA-MB-435. Besides, the TGI in the assay on OVCAR-4 ovarian was above 100 µM; in the assay on OVCAR-8 ovarian, 51.6 µM; in the assay with 786-0 renal, 46.4 µM.

On to `CCc1c(CNc2ccc(C(=O)NC(CC(=O)O)C(=O)O)cc2)ccc2nc(N)nc(N)c12` (stereo not drawn), for which the GI50 was 52.8 µM in the assay with OVCAR-3 ovarian, above 1000 µM in the assay with HOP-92 NSCLC, 0.179 µM in the assay with MALME-3M melanoma and 869 µM with OVCAR-4 ovarian. Moreover, the TGI in the assay on OVCAR-3 ovarian, in the assay on HOP-92 NSCLC, with HS 578T breast, with NCI/ADR-RES ovarian, with MALME-3M melanoma and in the assay with MDA-MB-435 was above 1000 µM in each case. The TGI in the assay with OVCAR-4 ovarian, in the assay with OVCAR-8 ovarian and in the assay on 786-0 renal was above 1000 µM in each case.

In the case of `CO[C@H]1SC[C@H](OC(C)=O)[C@H](OC(C)=O)[C@H]1OC(C)=O`, the TGI in the assay on OVCAR-3 ovarian, in the assay with HS 578T breast, in the assay on NCI/ADR-RES ovarian, with HCC-2998 colon, in the assay with MALME-3M melanoma and with MDA-MB-435 was above 100 µM throughout. Also, the TGI in the assay on OVCAR-4 ovarian, with OVCAR-8 ovarian and in the assay on 786-0 renal was above 100 µM each time.

Regarding `O=C1C=CC(=O)N1n1c(-c2ccccc2)n[nH]c1=O`, the TGI in the assay with OVCAR-3 ovarian, with HS 578T breast, with NCI/ADR-RES ovarian, in the assay on HCC-2998 colon, in the assay with MALME-3M melanoma and in the assay with MDA-MB-435 was above 100 µM each time. Moreover, the TGI in the assay on OVCAR-4 ovarian, in the assay with OVCAR-8 ovarian and in the assay on 786-0 renal was above 100 µM each time.

As to `O=c1cc(-c2ccncc2)[nH]c2cc3c(cc12)OCO3`, the TGI in the assay on OVCAR-3 ovarian, with HOP-92 NSCLC, in the assay with HS 578T breast, with NCI/ADR-RES ovarian, in the assay with HCC-2998 colon and in the assay on MDA-MB-435 was above 100 µM each time. The TGI in the assay on OVCAR-4 ovarian, with OVCAR-8 ovarian and in the assay on 786-0 renal was above 100 µM throughout.

For the molecule `CC(C)(C)OC(=O)NC(Cc1ccccc1)NC(=O)NC(=O)OCc1ccccc1` (stereo not drawn), the TGI in the assay with OVCAR-3 ovarian, in the assay on HS 578T breast, with NCI/ADR-RES ovarian, in the assay on HCC-2998 colon, in the assay on MALME-3M melanoma and with MDA-MB-435 was above 100 µM throughout. For the same molecule, the TGI with OVCAR-8 ovarian and with 786-0 renal was above 100 µM each time.

For `COc1ccc2nc(/C(N)=C\C#N)ccc2c1`, the TGI with OVCAR-3 ovarian, with HOP-92 NSCLC, with HS 578T breast, with NCI/ADR-RES ovarian, with MALME-3M melanoma and in the assay with MDA-MB-435 was above 100 µM in each case. Besides, the TGI in the assay with OVCAR-4 ovarian, in the assay on OVCAR-8 ovarian and in the assay on 786-0 renal was above 100 µM throughout.

Turning to `O=c1c(Cc2ccc(Cl)cc2)nnc2sc(-c3ccc(-c4ccc(F)c(Cl)c4)o3)nn12`, the TGI in the assay on HOP-92 NSCLC, in the assay with HS 578T breast, in the assay on NCI/ADR-RES ovarian, in the assay on HCC-2998 colon, in the assay on MALME-3M melanoma and with MDA-MB-435 was above 100 µM throughout. Also, the TGI in the assay on OVCAR-4 ovarian, in the assay on OVCAR-8 ovarian and in the assay on 786-0 renal was above 100 µM each time.
